Entries after “also recorded” stand apart in the source; their conditions may differ.
How the values were obtained:
PDE6D = target: T1, PDE6D (Homo sapiens, UniProt O43924); assay: Global proteomics / Western blot in SBMA hiPSC-myotubes: neosubstrate PDE6D; type: cell-based; settings: hiPSC-myotubes, data not shown
T1 construct: endogenous in cells; host or cells: SBMA hiPSC-derived myotubes
Text: (FIG. 12A). […] (FIG. 12C).

[1] = Efficacy in hAR100Q murine model of SBMA (body weight, grip strength, treadmill, survival); type: in vivo, mouse
Text: (§1) Male mice harboring approximately 73±14 copies of full-length human AR harboring 100 CAG repeats in exon 1 (hAR100Q) (“hAR100Q mice”) were used in this study. hAR100Q mice were obtained from mice (C57BL/6J background) expressing heterozygous human […] AR100Q (AR100Q+/−) under the control of the cytomegalovirus immediate-early enhancer and the chicken beta-actin (pCAGGS) promoter. These transgenic lines were maintained, and the colony expanded by breeding with C57BL/6J (Jackson Laboratory) wild-type (WT) mice.
(§2) A total of […] hAR100Q and 20 littermate controls were used for this study. Each genotype was divided into two groups of 10 (control vs Compound A) giving a total of four separate groups (WT control, WT Compound A, hAR100Q control, and hAR100Q Compound A). All mice were fed control chow beginning at 4 weeks of age. At 5 weeks of age, treated groups were switched to Compound A-formulated chow and the remaining mice were fed control chow. Body weights were recorded weekly starting at 5 weeks of age.
(§3) Compound A was formulated at 100 parts per million (ppm) Compound A in rodent chow (Purina #5015). This dose level (100 ppm) approximates a 15 mg/kg dose for a mouse that weighs 20 g and consumes 3 g of chow per day. For control chow, rodent chow (Purina #5015) was re-pelleted in an identical manner to the Compound A-formulated chow.
(§4) A grip strength apparatus was utilized to measure the force exerted by the forepaws only, or all four paws of mice once per week beginning at 7 weeks of age. The apparatus was placed on a sturdy flat lab bench and the apparatus's grid wire mesh was used for all four paws. Individual mice grasped a wire mesh (all four paws) and were gently pulled by the base of their tail to measure their maximum force exerted to maintain their grip. The grip strength assay was conducted 6 times per mouse, for all four paws.
(§5) A Touchscreen Treadmill was utilized to analyze length of time running at increasing speeds until exhaustion. Individual mice ran on a flat treadmill with a graded acceleration protocol consisting of 10 meters (m)/min. for the first 40 min., with the speed increasing thereafter by increments of 1 m/min. every 10 min. for 30 min., and then finally increasing speed by increments of 1 m/min. every 5 min. until the mice were exhausted. The exhaustion was determined by 5 consecutive seconds or 20 overall seconds of failure to exercise (by staying on shock rods at the start of the treadmill). Treadmill training was performed for 2 days before the first week of testing. The training protocol on day 1 consisted of 5 min. at 8 m/min, while day 2 consisted of 5 min. at 8 m/min. followed by 5 min. at 10 m/min.
(§6) In the murine model of SBMA used here (hereafter referred to as hAR100Q mice), which also expresses endogenous mouse AR, approximately 73±14 copies of full-length human AR with 100 CAG repeats (hAR100Q) are driven by the pCAGGS promoter (Chivet, M. et al. 2020, Cells 9, 325). Heterologous expression of hAR100Q results in muscle atrophy, motor deficits, and premature death (Chivet, M. et al. 2020, Cells 9, 325). Symptom onset starts as early as 8 weeks of age and get progressively worse until week 13-14, at which time mice are euthanized because of extreme immobility. In this study, male hAR100Q mice and littermate controls (10 mice in each group) were fed vehicle chow or Compound A-formulated chow at an approximate dose of 15 mg/kg. In-diet dosing was used in lieu of PO dosing due to the fragile nature of this disease model. Compound A-formulated chow was introduced at 5 weeks of age. In addition to weekly weight measurements, mice were evaluated using behavioral assays, including weekly grip strength measurements and forced treadmill tests at 11 weeks of age.

hAR100Q mice = assay: as above; type: in vivo, mouse
Text: as §1, §2, §3, §4, §5, §6

human AR100Q = target: T2, human AR100Q (Homo sapiens, UniProt P10275, INS80QQQQQQQQQQQQQQQQQQQQQQQQQQQQQQQQQQQQQQQQQQQQQQQQQQQQQQQQQQQQQQQQQQQQQQQQQQQQQ); assay: hAR100Q (polyQ-AR) degradation in muscle of hAR100Q mice, capillary immunoassay; type: in vivo
T2 construct: full-length human AR harboring 100 CAG repeats in exon 1 (hAR100Q); from tissue; host or cells: LABC and quadriceps muscle of transgenic hAR100Q mice (C57BL/6J background, pCAGGS promoter)
Experimental: Mouse endogenous AR, human AR100Q, and high molecular weight hAR100Q from hAR100Q mice were quantified by capillary immunoassay. Tissue lysates were prepared as described above using antibodies to AR and resolved by capillary electrophoresis (ProteinSimple). High molecular weight AR was quantified as the area under the curve (AUC) from 300 to 600 kDa.
A parallel cohort of hAR100Q mice was maintained in order to evaluate AR degradation at the 11-week timepoint. hAR100Q mice in this tissue cohort were fed chow identical to the mice that underwent muscle strength and endurance tests and were euthanized at 11-weeks of age.

T2 sequence (P10275 with tags, fused parts or gaps with the stated changes): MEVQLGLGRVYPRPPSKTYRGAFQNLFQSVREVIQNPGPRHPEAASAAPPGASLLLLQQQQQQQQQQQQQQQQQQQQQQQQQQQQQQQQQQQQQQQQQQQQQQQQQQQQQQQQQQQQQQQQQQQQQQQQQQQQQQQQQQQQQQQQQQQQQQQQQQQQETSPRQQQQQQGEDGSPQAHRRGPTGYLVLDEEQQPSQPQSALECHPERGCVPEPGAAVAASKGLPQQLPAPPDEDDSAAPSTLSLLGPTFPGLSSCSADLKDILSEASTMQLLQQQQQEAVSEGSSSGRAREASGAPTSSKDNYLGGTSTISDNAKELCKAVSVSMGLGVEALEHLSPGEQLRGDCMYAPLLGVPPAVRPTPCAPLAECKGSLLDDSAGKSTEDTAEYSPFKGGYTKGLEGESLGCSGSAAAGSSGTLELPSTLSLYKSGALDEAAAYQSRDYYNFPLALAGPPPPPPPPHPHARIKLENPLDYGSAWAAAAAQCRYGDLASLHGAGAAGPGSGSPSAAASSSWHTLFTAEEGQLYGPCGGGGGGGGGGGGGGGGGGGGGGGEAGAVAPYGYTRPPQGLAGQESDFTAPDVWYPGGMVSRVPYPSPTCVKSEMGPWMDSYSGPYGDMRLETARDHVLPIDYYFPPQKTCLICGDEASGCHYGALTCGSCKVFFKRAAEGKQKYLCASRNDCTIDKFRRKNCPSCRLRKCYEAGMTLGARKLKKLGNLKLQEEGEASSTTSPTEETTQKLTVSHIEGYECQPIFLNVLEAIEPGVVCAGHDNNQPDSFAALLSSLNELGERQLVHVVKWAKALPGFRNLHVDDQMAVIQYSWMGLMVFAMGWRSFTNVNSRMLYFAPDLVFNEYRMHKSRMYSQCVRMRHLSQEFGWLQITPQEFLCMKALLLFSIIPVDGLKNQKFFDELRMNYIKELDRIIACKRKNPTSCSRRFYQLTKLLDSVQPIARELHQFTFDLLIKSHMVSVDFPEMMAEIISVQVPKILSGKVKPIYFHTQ
T1 sequence (O43924 whole entry): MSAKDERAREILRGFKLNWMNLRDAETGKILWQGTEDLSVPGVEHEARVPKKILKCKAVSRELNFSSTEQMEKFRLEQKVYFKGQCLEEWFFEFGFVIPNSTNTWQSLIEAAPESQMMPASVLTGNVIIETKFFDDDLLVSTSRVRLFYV

For `CC(C)N(CC1CCN(c2ncc(C(=O)N[C@H]3C(C)(C)[C@H](Oc4ccc(C#N)c(Cl)c4)C3(C)C)cn2)CC1)[C@H]1C[C@H](Oc2ccc3c(c2)C(=O)N(C2CCC(=O)NC2=O)C3=O)C1` (stereo partly shown) [Compound A, N-((1r,3r)-3-(3-chloro-4-cyanophenoxy)-2,2,4,4-tetramethylcyclobutyl)-2-(4-((((1r,3r)-3-((2-(2,6-dioxopiperidin-3-yl)-1,3-dioxoisoindolin-5-yl)oxy)cyclobutyl)(isopropyl)amino)methyl)piperidin-1-yl)pyrimidine-5-carboxamide], which “reduction of PDE6D by Western blot” value (PDE6D) is on record?
Its value is roughly 50%.

And the “all paw grip strength in WT littermates” value ([1]; WT littermates, chow approx. 15 mg/kg, vs vehicle)?
The value was “similar”.

And the “muscle endurance, forced treadmill distance, WT littermates” value ([1]; WT littermates, week 11, vehicle versus compound chow)?
Its value is “No differences were observed”.

What about the “body weight over time in WT littermates” value ([1]; male WT littermates, formulated chow approx. 15 mg/kg) of the same compound?
The value was “no impact”.

And the median lifespan (hAR100Q mice; hAR100Q mice, formulated chow, birth to euthanasia)?
The median lifespan was 151 days.

What about the “muscle endurance, forced treadmill distance, hAR100Q mice” value (hAR100Q mice; hAR100Q mice, week 11, chow approx. 15 mg/kg) of the same compound?
The value was “performed as well as WT littermates”.

And the “all paw grip strength in hAR100Q mice” value (hAR100Q mice; hAR100Q mice, weekly from 7 weeks, chow approx. 15 mg/kg)?
The value was “delayed the decline and magnitude of grip strength decline”.

And the “body weight over time in hAR100Q mice” value (hAR100Q mice; male hAR100Q mice, formulated chow approx. 15 mg/kg from 5 weeks of age, vs vehicle)?
Its value is “rescued weight loss”.

And the “reduction of high molecular weight (aggregated) hAR100Q in LABC” value (human AR100Q; LABC, 11 weeks of age)?
Its value is “did not induce degradation; also recorded: did not reach significance”.

What about the “reduction of high molecular weight polyQ-AR (HMW hAR100Q) in quadriceps” value (human AR100Q; quadriceps) of the same compound?
The value was “trended towards a reduction”.

Reference: patent publication US12496301B2, “Use of androgen receptor degrader for the treatment of spinal and bulbar muscular atrophy” (Arvinas Operations, Inc., priority 2023, dated 2025)
